The test system of data set [1] is A549. Description: Induction of apoptosis in human A549 cells at IC50 incubated for 24 hrs by Annexin V-FITC/ethidium homodimer 3 staining based fluorescence microscopic method relative to control. In kind it is functional.
The subject of data set [2] is A549. Description: Antiproliferative activity aganist human A549 cells incubated for 72 hrs by MTT assay. In kind it is functional, cell-based. To be noted: A549, 72 h. For orientation: Tetrazolium assays rely on reduction of a dye to a coloured formazan, in cell work by metabolically active cells.
Data set [3] can be described thus: Selectivity index, ratio of IC50 for human PBMC cells to IC50 for human Jurkat cells. The class given is toxicity. To be noted: PBMC cells and Jurkat cells, read-out: Ratio IC50.
Data set [4] has as its system A549. Description: Induction of apoptosis in human A549 cells assessed as increase in necrosis cells at IC50 incubated for 24 hrs by Annexin V-FITC/ethidium homodimer 3 staining based fluorescence microscopic method relative to control. The class given is functional.
Data set [5] deals with Insulin receptor (Homo sapiens, UniProt P06213). Description: Inhibition of recombinant human N-terminal GST-tagged INSR (1011 to end residues) expressed in baculovirus infected Sf9 insect cells using Axltide as substrate incubated for 1 hr by ADP-Glo assay. (ADP-Glo first removes unused ATP, then detects ADP through luciferase.)
Insulin receptor, sequence (P06213 28-758 limits assumed): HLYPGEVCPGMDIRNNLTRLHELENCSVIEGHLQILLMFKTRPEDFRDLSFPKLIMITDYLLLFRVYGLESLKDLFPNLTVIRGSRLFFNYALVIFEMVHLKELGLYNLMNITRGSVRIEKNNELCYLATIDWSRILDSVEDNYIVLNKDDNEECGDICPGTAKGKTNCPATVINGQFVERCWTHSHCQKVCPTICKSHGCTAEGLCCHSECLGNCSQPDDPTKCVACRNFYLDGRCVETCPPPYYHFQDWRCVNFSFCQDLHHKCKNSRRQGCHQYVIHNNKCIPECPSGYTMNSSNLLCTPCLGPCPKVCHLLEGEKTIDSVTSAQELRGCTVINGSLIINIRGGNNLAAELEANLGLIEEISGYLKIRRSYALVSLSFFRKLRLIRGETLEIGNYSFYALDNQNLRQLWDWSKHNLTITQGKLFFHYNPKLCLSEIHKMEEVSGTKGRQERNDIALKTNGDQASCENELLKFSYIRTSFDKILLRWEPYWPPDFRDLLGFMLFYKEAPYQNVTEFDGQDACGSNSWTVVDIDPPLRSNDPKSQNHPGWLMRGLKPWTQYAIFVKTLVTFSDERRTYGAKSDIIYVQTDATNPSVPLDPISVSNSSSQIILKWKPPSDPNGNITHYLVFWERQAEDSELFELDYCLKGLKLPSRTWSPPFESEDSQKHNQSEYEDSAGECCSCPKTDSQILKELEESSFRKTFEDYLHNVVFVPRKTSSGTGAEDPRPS
Insulin receptor, sequence (P06213 763-1382 limits assumed): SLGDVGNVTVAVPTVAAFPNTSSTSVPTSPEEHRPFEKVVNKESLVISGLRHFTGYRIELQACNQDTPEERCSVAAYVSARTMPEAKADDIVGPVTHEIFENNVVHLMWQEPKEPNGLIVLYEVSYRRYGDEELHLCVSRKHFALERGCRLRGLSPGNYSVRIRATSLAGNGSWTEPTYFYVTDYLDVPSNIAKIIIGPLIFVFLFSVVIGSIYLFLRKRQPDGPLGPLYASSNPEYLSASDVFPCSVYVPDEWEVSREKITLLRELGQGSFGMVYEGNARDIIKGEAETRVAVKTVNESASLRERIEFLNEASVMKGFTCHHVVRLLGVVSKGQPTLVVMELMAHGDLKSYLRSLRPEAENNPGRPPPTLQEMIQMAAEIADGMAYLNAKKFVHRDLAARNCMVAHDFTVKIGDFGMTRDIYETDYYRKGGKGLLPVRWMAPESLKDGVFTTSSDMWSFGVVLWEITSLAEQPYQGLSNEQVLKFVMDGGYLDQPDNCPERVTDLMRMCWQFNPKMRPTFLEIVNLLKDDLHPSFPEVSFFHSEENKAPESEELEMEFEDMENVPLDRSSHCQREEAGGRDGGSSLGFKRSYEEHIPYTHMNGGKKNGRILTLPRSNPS
Data set [6] has as its system MCF7. Description: Induction of apoptosis in human MCF7 cells assessed as increase in apoptosis/necrosis cells at IC50 incubated for 24 hrs by Annexin V-FITC/ethidium homodimer 3 staining based fluorescence microscopic method relative to control. The class given is functional.
Data set [7] relates to Jurkat. Description: Antiproliferative activity aganist human Jurkat cells incubated for 72 hrs by MTT assay. The class given is functional, cell-based.
The target of data set [8] is Insulin-like growth factor 1 receptor (Homo sapiens, UniProt P08069). Description: Inhibition of recombinant human N-terminal His-tagged IGF1R (960 to end residues) expressed in baculovirus infected Sf9 insect cells using IGF1Rtide as substrate incubated for 1 hr by ADP-Glo assay.
The test system of data set [9] is MCF7. Description: Induction of apoptosis in human MCF7 cells assessed as increase in necrosis cells at IC50 incubated for 24 hrs by Annexin V-FITC/ethidium homodimer 3 staining based fluorescence microscopic method relative to control. The class given is functional.
For data set [10], the target named is Receptor tyrosine-protein kinase erbB-4 (Homo sapiens, UniProt Q15303). Description: Inhibition of recombinant human N-terminal GST-tagged HER4 (682 to 993 residues) expressed in baculovirus infected Sf9 insect cells using Poly (4:1 Glu, Tyr) peptide as substrate incubated for 1 hr by ADP-Glo assay.
Receptor tyrosine-protein kinase erbB-4, sequence (Q15303 whole entry, the tested form may be a part): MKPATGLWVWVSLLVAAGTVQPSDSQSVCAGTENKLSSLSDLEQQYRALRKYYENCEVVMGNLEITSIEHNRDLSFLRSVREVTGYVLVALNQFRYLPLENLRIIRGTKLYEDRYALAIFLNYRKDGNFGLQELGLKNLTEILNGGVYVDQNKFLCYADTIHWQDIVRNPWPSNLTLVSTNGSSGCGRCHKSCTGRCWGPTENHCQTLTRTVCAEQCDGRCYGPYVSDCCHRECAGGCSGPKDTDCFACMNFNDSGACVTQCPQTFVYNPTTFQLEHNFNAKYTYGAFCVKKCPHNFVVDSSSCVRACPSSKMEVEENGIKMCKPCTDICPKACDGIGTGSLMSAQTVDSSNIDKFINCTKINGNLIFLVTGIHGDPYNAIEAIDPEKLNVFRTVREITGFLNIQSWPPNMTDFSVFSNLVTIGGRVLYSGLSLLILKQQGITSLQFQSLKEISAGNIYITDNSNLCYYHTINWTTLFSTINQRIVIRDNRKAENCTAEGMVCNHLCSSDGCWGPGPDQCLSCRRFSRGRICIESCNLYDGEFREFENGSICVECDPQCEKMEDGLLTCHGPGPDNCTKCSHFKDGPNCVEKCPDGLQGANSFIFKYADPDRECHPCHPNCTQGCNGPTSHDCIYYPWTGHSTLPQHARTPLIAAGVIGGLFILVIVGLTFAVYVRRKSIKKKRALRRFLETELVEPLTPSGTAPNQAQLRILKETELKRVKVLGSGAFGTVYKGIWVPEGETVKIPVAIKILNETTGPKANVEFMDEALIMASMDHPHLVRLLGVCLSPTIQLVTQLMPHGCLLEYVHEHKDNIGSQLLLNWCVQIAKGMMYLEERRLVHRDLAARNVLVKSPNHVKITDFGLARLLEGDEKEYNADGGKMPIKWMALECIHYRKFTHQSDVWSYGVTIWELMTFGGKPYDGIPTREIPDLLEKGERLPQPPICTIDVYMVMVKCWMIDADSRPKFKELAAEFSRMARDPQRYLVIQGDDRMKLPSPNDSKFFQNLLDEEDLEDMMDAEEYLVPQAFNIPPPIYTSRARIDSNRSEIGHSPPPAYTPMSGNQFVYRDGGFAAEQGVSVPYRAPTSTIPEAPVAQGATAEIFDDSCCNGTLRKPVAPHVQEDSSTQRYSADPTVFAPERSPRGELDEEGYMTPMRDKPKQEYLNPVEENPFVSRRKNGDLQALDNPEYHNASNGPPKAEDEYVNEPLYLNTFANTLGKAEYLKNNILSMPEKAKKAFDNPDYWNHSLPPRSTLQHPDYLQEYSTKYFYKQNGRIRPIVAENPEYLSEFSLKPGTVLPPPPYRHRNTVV
The target in data set [11] is Vascular endothelial growth factor receptor 2 (Homo sapiens, UniProt P35968). Description: Inhibition of recombinant human N-terminal GST-tagged KDR (789 to end residues) expressed in baculovirus infected Sf9 insect cells using Poly (4:1 Glu, Tyr) peptide as substrate incubated for 1 hr by ADP-Glo assay.
Vascular endothelial growth factor receptor 2, sequence (P35968 whole entry): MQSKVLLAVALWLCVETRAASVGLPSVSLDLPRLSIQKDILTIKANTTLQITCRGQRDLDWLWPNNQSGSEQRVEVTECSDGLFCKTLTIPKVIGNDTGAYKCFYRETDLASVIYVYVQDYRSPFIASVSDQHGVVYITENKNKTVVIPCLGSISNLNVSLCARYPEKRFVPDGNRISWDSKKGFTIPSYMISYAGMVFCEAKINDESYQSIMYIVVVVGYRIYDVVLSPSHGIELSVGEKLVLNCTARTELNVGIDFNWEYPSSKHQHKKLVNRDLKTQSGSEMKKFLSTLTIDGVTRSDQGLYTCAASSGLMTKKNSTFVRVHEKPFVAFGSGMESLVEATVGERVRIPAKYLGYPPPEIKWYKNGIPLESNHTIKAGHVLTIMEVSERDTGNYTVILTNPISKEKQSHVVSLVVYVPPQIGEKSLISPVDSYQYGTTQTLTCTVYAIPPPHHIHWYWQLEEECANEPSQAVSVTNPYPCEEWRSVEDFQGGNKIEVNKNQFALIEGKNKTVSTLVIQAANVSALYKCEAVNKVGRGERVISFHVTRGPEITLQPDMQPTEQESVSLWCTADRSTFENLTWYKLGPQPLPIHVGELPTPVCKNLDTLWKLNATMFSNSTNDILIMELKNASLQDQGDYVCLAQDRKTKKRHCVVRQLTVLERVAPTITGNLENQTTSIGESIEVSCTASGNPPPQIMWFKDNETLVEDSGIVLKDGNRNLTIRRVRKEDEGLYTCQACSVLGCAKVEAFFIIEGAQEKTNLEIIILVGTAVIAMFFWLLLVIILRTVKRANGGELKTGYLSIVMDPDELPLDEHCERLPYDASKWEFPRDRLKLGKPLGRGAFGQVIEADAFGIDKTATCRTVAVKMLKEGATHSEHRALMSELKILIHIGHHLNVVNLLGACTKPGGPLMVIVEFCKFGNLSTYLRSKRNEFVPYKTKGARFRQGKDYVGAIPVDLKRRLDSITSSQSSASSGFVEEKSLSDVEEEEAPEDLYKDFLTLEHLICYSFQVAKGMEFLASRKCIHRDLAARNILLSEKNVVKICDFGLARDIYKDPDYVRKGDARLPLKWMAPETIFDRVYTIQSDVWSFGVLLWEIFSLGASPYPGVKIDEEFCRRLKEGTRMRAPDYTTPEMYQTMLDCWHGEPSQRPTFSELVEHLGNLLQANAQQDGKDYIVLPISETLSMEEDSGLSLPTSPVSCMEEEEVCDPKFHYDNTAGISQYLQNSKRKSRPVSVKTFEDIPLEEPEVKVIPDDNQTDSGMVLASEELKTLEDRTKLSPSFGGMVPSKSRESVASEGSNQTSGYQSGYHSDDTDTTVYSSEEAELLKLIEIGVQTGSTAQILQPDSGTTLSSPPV
In data set [12] the test system is MCF7. Description: Induction of apoptosis in human MCF7 cells at IC50 incubated for 24 hrs by Annexin V-FITC/ethidium homodimer 3 staining based fluorescence microscopic method relative to control. The class given is functional.
Data set [13] concerns MCF7. Description: Antiproliferative activity aganist human MCF7 cells incubated for 72 hrs by MTT assay. The class given is functional, cell-based. To be noted: MCF7, 72 h.
Data set [14] relates to A549. Description: Induction of apoptosis in human A549 cells assessed as increase in apoptosis/necrosis cells at IC50 incubated for 24 hrs by Annexin V-FITC/ethidium homodimer 3 staining based fluorescence microscopic method relative to control. The class given is functional.
Data set [15] concerns the target Platelet-derived growth factor receptor beta (Homo sapiens, UniProt P09619). Description: Inhibition of recombinant human N-terminal GST-tagged PDGFRbeta (557 to end residues) expressed in baculovirus infected Sf9 insect cells using Poly (4:1 Glu, Tyr) peptide as substrate incubated for 1 hr by ADP-Glo assay.
Data set [16] relates to A-375. Description: Antiproliferative activity aganist human A375 cells incubated for 72 hrs by MTT assay. In kind it is functional, cell-based. To be noted: A-375, 72 h.
In data set [17] the target is Receptor tyrosine-protein kinase erbB-2 (Homo sapiens, UniProt P04626). Description: Inhibition of recombinant human N-terminal GST-tagged HER2 (676 to end residues) expressed in baculovirus infected Sf9 insect cells using Poly (4:1 Glu, Tyr) peptide as substrate incubated for 1 hr by ADP-Glo assay.
Data set [18] concerns the target Platelet-derived growth factor receptor alpha (Homo sapiens, UniProt P16234). Description: Inhibition of recombinant human N-terminal GST-tagged PDGFRalpha (550 to end residues) expressed in baculovirus infected Sf9 insect cells using Poly (4:1 Glu, Tyr) peptide as substrate incubated for 1 hr by ADP-Glo assay.
Data set [19] addresses Epidermal growth factor receptor (Homo sapiens, UniProt P00533). Description: Inhibition of recombinant human N-terminal GST-tagged EGFR (695 to end residues) expressed in baculovirus infected Sf9 insect cells using Poly (4:1 Glu, Tyr) peptide as substrate incubated for 1 hr by ADP-Glo assay.
In data set [20] the test system is PBMC. Description: Cytotoxicity against human PBMC cells assessed as reduction in cell viability incubated for 72 hrs by MTT assay. In kind it is cell-based.

One may read the pIC50 as −log10 of the IC50, conventionally taken in molar units.

pIC50: −log10 of the molar value. Bounds are passed on as bounds.

Platelet-derived growth factor receptor alpha, sequence (P16234 whole entry): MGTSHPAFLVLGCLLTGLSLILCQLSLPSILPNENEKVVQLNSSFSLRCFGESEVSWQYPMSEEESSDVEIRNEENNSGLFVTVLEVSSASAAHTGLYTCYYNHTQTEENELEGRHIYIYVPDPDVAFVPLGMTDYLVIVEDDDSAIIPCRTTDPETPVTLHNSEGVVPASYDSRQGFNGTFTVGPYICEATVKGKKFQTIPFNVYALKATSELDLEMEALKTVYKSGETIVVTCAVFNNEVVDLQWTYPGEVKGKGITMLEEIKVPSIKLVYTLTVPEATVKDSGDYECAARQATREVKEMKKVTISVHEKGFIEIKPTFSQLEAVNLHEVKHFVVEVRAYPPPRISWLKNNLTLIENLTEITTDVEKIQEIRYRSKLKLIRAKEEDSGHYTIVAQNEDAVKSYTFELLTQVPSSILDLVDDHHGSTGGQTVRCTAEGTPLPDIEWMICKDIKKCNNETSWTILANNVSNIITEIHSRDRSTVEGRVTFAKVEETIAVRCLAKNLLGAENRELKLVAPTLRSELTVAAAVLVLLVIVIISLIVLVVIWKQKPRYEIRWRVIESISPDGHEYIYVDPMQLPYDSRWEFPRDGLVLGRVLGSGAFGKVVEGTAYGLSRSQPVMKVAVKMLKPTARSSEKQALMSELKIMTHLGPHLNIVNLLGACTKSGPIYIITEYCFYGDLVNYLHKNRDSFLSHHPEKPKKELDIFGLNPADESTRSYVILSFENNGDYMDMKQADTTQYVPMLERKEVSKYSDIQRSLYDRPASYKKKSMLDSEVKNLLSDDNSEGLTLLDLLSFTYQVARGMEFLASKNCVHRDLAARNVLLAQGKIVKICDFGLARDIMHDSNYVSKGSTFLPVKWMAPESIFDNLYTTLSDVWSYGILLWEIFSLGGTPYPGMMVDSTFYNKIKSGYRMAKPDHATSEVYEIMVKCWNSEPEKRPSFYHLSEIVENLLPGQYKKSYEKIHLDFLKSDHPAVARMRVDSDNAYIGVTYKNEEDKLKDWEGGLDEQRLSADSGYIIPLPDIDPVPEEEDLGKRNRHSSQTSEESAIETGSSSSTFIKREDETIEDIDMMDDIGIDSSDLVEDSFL

On to `N#Cc1ccc(-c2csc(N3N=C(c4ccc(N5CCCCC5)cc4)CC3c3ccc(Cl)cc3)n2)cc1` (stereo not drawn), for which the Activity in [1] worked out at 77%; in [4], 8%; in data set [6], 27%; in [9], 10%; in data set [12], 63%; in data set [14], 15%. Also, the pIC50 in data set [2] is 4.95; in [5], less than 4.52; in [7] it was 4.53; in data set [8] it was less than 4.52; in data set [10], 4.54; in [11] it was 4.59. Besides, the pIC50 in [13] is 5.01; in data set [15] it was less than 4.52; in [16], 4.41; in [17], less than 4.52; in [18], less than 4.52; in data set [19] it was 5.33. Further, the pIC50 in data set [20] was 3.52. For the same molecule, in [3], the selectivity ratio is greater than 10.

In the case of `Cc1ccc(-c2csc(N3N=C(c4ccc(N5CCCCC5)cc4)CC3c3ccc(Cl)cc3)n2)cc1` (stereo not drawn), the pIC50 in [2], in [13] and in data set [16] was less than 4.00 in each case.

For the molecule `Clc1ccc(C2CC(c3ccc(N4CCCCC4)cc3)=NN2c2nc(-c3ccccc3)cs2)cc1` (stereo not drawn), the values for the pIC50 in data set [2], in data set [13] and in data set [16] were 4.19, 4.55 and 4.18, respectively.

With `COc1ccc(-c2csc(N3N=C(c4ccc(N5CCOCC5)cc4)CC3c3ccc(Cl)cc3)n2)cc1` (stereo not drawn), the pIC50 in data set [2], in [13] and in data set [16] was less than 4.00 in each case.

Regarding `Cc1ccc(-c2csc(N3N=C(c4ccc(N5CCOCC5)cc4)CC3c3ccc(Cl)cc3)n2)cc1` (stereo not drawn), the negative-log IC50 (pIC50) in data set [2], in data set [13] and in data set [16] was less than 4.00 in each case.

On to `N#Cc1ccc(-c2csc(N3N=C(c4ccc(N5CCOCC5)cc4)CC3c3ccc(Cl)cc3)n2)cc1` (stereo not drawn), for which the Activity in data set [1] is on record as 68%; in [4], 13%; in data set [6] it was 32%; in data set [9], 27%; in [12], 51%; in data set [14] it was 19%. For the same molecule, the pIC50 was 4.97 in data set [2]; less than 4.52 in [5]; 4.39 in data set [7]; 4.99 in data set [8]; 5.33 in [10]; 4.97 in data set [11]. The pIC50 is 5.09 in [13]; less than 4.52 in data set [15]; 4.27 in data set [16]; 5.64 in [17]; less than 4.52 in [18]; 3.52 in data set [20]. In addition, in data set [3], the selectivity ratio was greater than 10.

As to `COc1ccc(-c2csc(N3N=C(c4ccc(N5CCCCC5)cc4)CC3c3ccc(Cl)cc3)n2)cc1` (stereo not drawn), the pIC50 in [2], in data set [13] and in data set [16] was less than 4.00 each time.

As to `NC(=S)N1N=C(c2ccc(N3CCCCC3)cc2)CC1c1ccc(Cl)cc1` (stereo not drawn), the results for the pIC50 in [2], in [13] and in data set [16] were 4.47, 4.65 and less than 4.00, respectively.

Turning to `Clc1ccc(C2CC(c3ccc(N4CCCCC4)cc3)=NN2c2nc(-c3ccc(Br)cc3)cs2)cc1` (stereo not drawn), the pIC50 in data set [2] was 4.40; in [13] it was less than 4.00; in data set [16], less than 4.00.

With `CS(=O)(=O)c1ccc(-c2csc(N3N=C(c4ccc(N5CCCCC5)cc4)CC3c3ccc(Cl)cc3)n2)cc1` (stereo not drawn), the pIC50 in [2], in [13] and in data set [16] was less than 4.00 each time.

Take `Clc1ccc(-c2csc(N3N=C(c4ccc(N5CCOCC5)cc4)CC3c3ccc(Cl)cc3)n2)cc1` (stereo not drawn): the values for the pIC50 in [2], in data set [13] and in [16] were 4.72, 4.83 and 4.12, respectively.

In the case of `C#Cc1cccc(Nc2ncnc3cc(OCCOC)c(OCCOC)cc23)c1` [ERLOTINIB], the Activity in [1] is reported as 72%; in data set [4] it was 9%; in data set [6], 21%; in [9], 13%; in [12], 66%; in data set [14] it was 19%. For the same molecule, the pIC50 in data set [2] was 4.65; in [7], 4.92; in data set [13] it was 5.08; in data set [16], 4.56; in [20] it was 4.41.

Take `O=[N+]([O-])c1ccc(-c2csc(N3N=C(c4ccc(N5CCCCC5)cc4)CC3c3ccc(Cl)cc3)n2)cc1` (stereo not drawn): the negative logarithm of the IC50 (pIC50) in data set [2], in data set [13] and in [16] was less than 4.00 throughout.

In the case of `Clc1ccc(C2CC(c3ccc(N4CCOCC4)cc3)=NN2c2nc(-c3ccccc3)cs2)cc1` (stereo not drawn), the figures for the pIC50 in data set [2], in data set [13] and in data set [16] were 4.12, 4.28 and less than 4.00, respectively.

On to `Clc1ccc(-c2csc(N3N=C(c4ccc(N5CCCCC5)cc4)CC3c3ccc(Cl)cc3)n2)cc1` (stereo not drawn), for which the pIC50 was 4.33 in data set [2], less than 4.00 in data set [13] and less than 4.00 in data set [16].

Turning to `Clc1ccc(C2CC(c3ccc(N4CCOCC4)cc3)=NN2c2nc(-c3ccc(Br)cc3)cs2)cc1` (stereo not drawn), the pIC50 is 4.03 in data set [2], 4.15 in data set [13] and less than 4.00 in data set [16].

As to `CS(=O)(=O)c1ccc(-c2csc(N3N=C(c4ccc(N5CCOCC5)cc4)CC3c3ccc(Cl)cc3)n2)cc1` (stereo not drawn), the pIC50 in [2] is 4.97; in data set [13], 4.17; in data set [16] it was less than 4.00.

In the case of `FC(F)(F)c1ccc(-c2csc(N3N=C(c4ccc(N5CCCCC5)cc4)CC3c3ccc(Cl)cc3)n2)cc1` (stereo not drawn), the values for the pIC50 in data set [2], in data set [13] and in data set [16] were 4.38, 4.63 and 4.19, respectively.

On to `Fc1ccc(-c2csc(N3N=C(c4ccc(N5CCCCC5)cc4)CC3c3ccc(Cl)cc3)n2)cc1` (stereo not drawn), for which the results for the pIC50 in data set [2], in [13] and in [16] were 4.15, 4.64 and 4.15, respectively.

As for `FC(F)(F)c1ccc(-c2csc(N3N=C(c4ccc(N5CCOCC5)cc4)CC3c3ccc(Cl)cc3)n2)cc1` (stereo not drawn), the negative logarithm of the IC50 (pIC50) is 4.41 in data set [2], less than 4.00 in data set [13] and less than 4.00 in data set [16].

On to `NC(=S)N1N=C(c2ccc(N3CCOCC3)cc2)CC1c1ccc(Cl)cc1` (stereo not drawn), for which the pIC50 in data set [2] is less than 4.00; in [13], 4.43; in data set [16], less than 4.00.

In the case of `O=[N+]([O-])c1ccc(-c2csc(N3N=C(c4ccc(N5CCOCC5)cc4)CC3c3ccc(Cl)cc3)n2)cc1` (stereo not drawn), the pIC50 in [2], in data set [13] and in [16] was less than 4.00 in each case.

With `Clc1ccc(C2CC(c3ccc(N4CCOCC4)cc3)=NN2c2nc(-c3ccc4ccccc4c3)cs2)cc1` (stereo not drawn), the pIC50 in data set [2], in data set [13] and in data set [16] was less than 4.00 in each case.

As to `Clc1ccc(C2CC(c3ccc(N4CCCCC4)cc3)=NN2c2nc(-c3ccc4ccccc4c3)cs2)cc1` (stereo not drawn), the negative-log IC50 (pIC50) in data set [2], in data set [13] and in data set [16] was less than 4.00 each time.

For `Fc1ccc(-c2csc(N3N=C(c4ccc(N5CCOCC5)cc4)CC3c3ccc(Cl)cc3)n2)cc1` (stereo not drawn), the Activity in data set [1] is reported as 65%; in [4], 12%; in data set [6] it was 14%; in [9], 8%; in [12] it was 78%; in [14], 23%. The pIC50 is 5.05 in data set [2]; 5.01 in [5]; 4.63 in data set [7]; 5.48 in [8]; 5.82 in data set [10]; 4.98 in data set [11]. The pIC50 in [13] is 5.02; in data set [15], less than 4.52; in [16] it was 4.07; in data set [17] it was 5.16; in data set [18] it was less than 4.52; in data set [19], 4.63. Also, the pIC50 in data set [20] is less than 3.52. The selectivity ratio in data set [3] is greater than 10.

These data come from ChEMBL document CHEMBL4406839, “Design, synthesis and biological evaluation of a new series of thiazolyl-pyrazolines as dual EGFR and HER2 inhibitors” (Eur J Med Chem, 2019).
